In publication PMC3514653 (Neuromodulation : journal of the International …, 2012):
Where two headings read alike, the source gives them in different places. Marks after values point to notes of the source that are not given here.

Legend:
Male beagle dogs [1] = conditions: dog, in vivo
Male beagle dogs [2] = conditions: dog, in vivo, iv, 0.1 mg/kg
[3] = dog, in vivo
in vivo [4] = conditions: beagle, dog
in vivo [5] = conditions: male, beagle, dog, iv, 0.1 mg/kg
in vivo [6] = conditions: male, beagle, dog, 10 ug
[7] = in vivo; cited from earlier work
[8] = in vivo; cited from earlier work; remark: listed apart in the source
[9] = dog, in vivo; remark: listed apart in the source
[10] = dog, in vivo; remark: listed apart in the source
Male beagle dogs [11] = conditions: dog, in vivo; remark: listed apart in the source
Male beagle dogs [12] = conditions: dog, in vivo; remark: listed apart in the source

For CSCC[C@@H]1NC(=O)[C@H](CC(C)C)NC(=O)[C@H](CCCNC(=N)N)NC(=O)[C@H](CO)NC(=O)[C@@H]2CSSC[C@@H]3NC(=O)[C@H](CO)NC(=O)CNC(=O)[C@H]([C@@H](C)O)NC(=O)[C@H](CSSC[C@H](N)C(=O)N[C@@H](CCCCN)C(=O)NCC(=O)N[C@@H](CCCCN)C(=O)NCC(=O)N[C@@H](C)C(=O)N[C@@H](CCCCN)C(=O)N2)NC(=O)[C@H](CSSC[C@@H](C(N)=O)NC(=O)[C@H](CCCCN)NC(=O)CNC(=O)[C@H](CO)NC(=O)[C@H](CCCNC(=N)N)NC3=O)NC(=O)[C@H](CC(=O)O)NC(=O)[C@H](Cc2ccc(O)cc2)NC1=O [Ziconotide], the “Blood pressure and heart rate effect” value (Male beagle dogs [1]) was “modest decline in mean, diastolic, and systolic pressures and a mild tachycardia”, the “Effect upon blood pressure” value (Male beagle dogs [1]) was “no effect upon blood pressure” and the “Effect upon mean, diastolic, and systolic blood pressures” value (Male beagle dogs [1]) was “prominent reduction that persisted for the remainder of the infusion”. For the same compound, the “Duration of fall in blood pressures” value (Male beagle dogs [1]; iv, 0.1 mg/kg) was over 8 h, the “Effect upon heart rate” value (Male beagle dogs [1]; iv, 0.1 mg/kg) was “corresponding tachycardia” and the “Fall in mean, diastolic, and systolic pressures” value (Male beagle dogs [1]; iv, 0.1 mg/kg) was “approximately 40 mmHg”. For the same compound, the Respiratory rates (Male beagle dogs [2]) was “moderate decrease in respiratory rates for approximately 3 hr post injection”, the “Elimination T1/2 in CSF following IV injection” value [3] was 1.64 h and the “Elimination T1/2 in plasma following IV injection” value [3] was 0.75 h. For the same compound, the “Elimination half life after bolus IV delivery” value [3] was 1.6 h, the “FCSF (absolute bioavailability in CSF after bolus IV)” value [3] was 0.013% and the CL/F (in vivo [4]; CL/F (infusion rate divided by steady-state concentration)) was 134 mL/min. The level at 48 h (in vivo [4]; male, 5 ug/hr) was 13.5 ng/mL, the Cmax (in vivo [5]) was about 900 ng/mL and the CL/F (in vivo [6]) was 196 mL/min. The Vd/F (in vivo [6]) was 17.2 L, the AUC(0-inf) (in vivo [6]; AUC∞) was 0.85 ng·h/mL and the bioavailability (in vivo [6]; iv) was 53.5%. The “Median LCSF half-life” value [7] was 4.5 h, the Volume of distribution [7] was 99 mL and the “Diffusion of the peptide in rat brain parenchyma” value [8] was “less than 1 mm”. The “LCSF: cisternal ratio at steady state” value [9] was ~1: 0.02, the “Plasma concentration relative to that in the cisterna” value [9] was “approximately 0.1 times” and the “Ratio of LCSF concentrations at infusion doses 1 and 5 µg/hr” value [9] was “approximately 1: 4”. For the same compound, the “Terminal elimination T1/2 after termination of continuous infusion” value [9] was 2.47 h, the “Time to peak plasma level” value [9] was at most 8 h and the “Plasma concentration at steady state, 8–48 hr group mean” value ([9]; male, beagle, 5 ug/hr) was 1.12 ng/mL. The “CSF : plasma ratio” value [10] was “approximately 20,000: 1”, the “Time of peak concentration in LCSF” value [10] was at most 3 min and the Vz/F [10] was 12932 – 33328^b mL. For the same compound, the “Arousal, muscle tone, and coordination” value (Male beagle dogs [11]) was “not affected”, the “Diarrhea, dogs affected” value (Male beagle dogs [11]) was 3 of the 5 and the “Severity of whole body trembling and ataxia” value (Male beagle dogs [11]) was “tendency for this to increase in severity”. The “Whole body trembling, dogs affected” value (Male beagle dogs [11]) was 3 of the 5, the “Persistence of observed effects” value (Male beagle dogs [11]; iv, 0.1 mg/kg) was “absent 24 hr post injection” and the “Scleral vasodilation and facial erythema, dogs affected” value (Male beagle dogs [11]; iv, 0.1 mg/kg) was 2 of the 5. The “Vomiting, dogs affected” value (Male beagle dogs [11]; iv, 0.1 mg/kg) was 4 of the 5, the “Body temperature versus baseline” value (Male beagle dogs [12]) was “not different from pretreatment baseline measurements” and the “Time for elevated temperatures to return to baseline” value (Male beagle dogs [12]) was 24 to 72 h. For the same compound, the “Body temperature versus baseline” value (Male beagle dogs [12]; iv) was “not different from pretreatment baseline measurements”.
